We go through 8 molecules from paper PMC9854410, “Targeted isolation of antitubercular cycloheptapeptides and an unusual pyrroloindoline-containing new analog, asperpyrroindotide A, using LC–MS/MS-based molecular networking” (Marine Life Science & Technology, 2023).

Values after ≈ are worked out from the molar mass of the structure shown. Marks after values point to notes of the source that are not given here. Starred links: 1 amine or outer side, 2 acyl side, 3 side chain; linkers in the order of their positions; H or OH if unused. Non-standard residues stand in square brackets, D forms with d. Residues, ends and D or L forms follow the SMILES beside them. X1 = O=C([C@H]1C[C@]2(O)c3ccccc3N[C@@H]2N1[*:1])[*:2]

For test [1], the system named is Mycobacterium tuberculosis H37Ra (ATCC 25,177). Kind of test: microbe, parasite or virus in culture. Format: cell-based. The note with it: microplate Alamar Blue assay; for inhibitory activity against M. tuberculosis H37Ra at a single concentration: at a concentration of 100 μg/mL. Here is the method: Anti-mycobacterial activity was determined against Mycobacterium tuberculosis H37Ra (ATCC 25,177) in a microplate Alamar Blue assay system (Collins et al. [1997]). The anti-tubercular drug rifampin was used as a positive control.
A general note: The colour change of resazurin is a common sign of viable cells or microbes.

The subject of a further test is Mycobacterium marinum. More on the design: method as in Hou et al. [2019b]. The note with it: previous research; positive controls rifampin, streptomycin, isoniazid; ref Hou et al. [2019b]; cited from earlier work.
For test [2], the system named is Mycobacterium tuberculosis H37Ra (ATCC 25,177). Conditions: reported data; ref Hou et al. 2019; cited from earlier work. An excerpt:
Supplement 42995_2022_157_MOESM1_ESM.docx, table 2: Table S2. Antitubercular activity of compounds 1, 8−19 and previously reported 2, 20−23 against Mycobacterium tuberculosis H37Ra | column: MICs (μmol/L)

Turning to `CC(C)[C@H]1NC(=O)[C@H](Cc2ccccc2)NC(=O)[C@@H](C(C)C)NC(=O)[C@@H](C)NC(=O)[C@H](C)NC(=O)[C@H]2C[C@]3(O)c4ccccc4N[C@@H]3N2C(=O)[C@@H](CO)NC1=O` [Compound 9] (cyclo([X1]A[dA][dV]F[dV][dS])), the “inhibitory activity against M. tuberculosis H37Ra at a single concentration” value in test [1] was “None of them showed obvious inhibitory activity”. Further, in test [1] (rifampin as positive control), the “MICs (μg/mL) against Mycobacterium tuberculosis H37Ra” value (“MICs (μg/mL)” below) was over 100 µg/mL.

For the molecule asperversiamide C [Compound 3], in the test on Mycobacterium marinum, the “minimum inhibitory concentrations (MICs) against Mycobacterium marinum” value (from here on “minimum inhibitory concentrations (MICs)”) is 87.5 µM.

Consider asperversiamide B [Compound 2], for which, in the test on Mycobacterium marinum, the “minimum inhibitory concentrations (MICs)” value was 81.2 µM. Also, in test [2], the “MICs (μmol/L) against Mycobacterium tuberculosis H37Ra” value is reported as 100 ^b μmol/L.

Consider `NNC(=O)c1ccncc1` [isoniazid, reference compound], for which the “minimum inhibitory concentrations (MICs)” value in the test on Mycobacterium marinum was 88.5 µM (≈ 12.1 µg/mL).

Regarding `CO[C@H]1/C=C/O[C@@]2(C)Oc3c(C)c(O)c4c(O)c(c(/C=N/N5CCN(C)CC5)c(O)c4c3C2=O)NC(=O)/C(C)=C\C=C\[C@H](C)[C@H](O)[C@@H](C)[C@@H](O)[C@@H](C)[C@H](OC(C)=O)[C@@H]1C` [rifampin, reference compound], in the test on Mycobacterium marinum, the “minimum inhibitory concentrations (MICs)” value was 19.0 µM (≈ 15.6 µg/mL). Moreover, the MIC in test [1] (Mycobacterium tuberculosis, rifampin as positive control, read-out: MICs (μg/mL) against Mycobacterium tuberculosis H37Ra) turned out to be 0.0156 µg/mL (≈ 0.019 µM).

Turning to `CC(C)[C@H]1NC(=O)[C@H](Cc2ccccc2)NC(=O)[C@@H](C(C)C)NC(=O)[C@@H](C)NC(=O)[C@H](CO)NC(=O)[C@@H](Cc2c[nH]c3ccccc23)NC(=O)[C@@H](CO)NC1=O` [Compound 1, asperversiamide A] (cyclo([dV][dS][dW]S[dA][dV]F)), the “minimum inhibitory concentrations (MICs)” value in the test on Mycobacterium marinum was 23.4 µM (≈ 18.2 µg/mL). In addition, the “MICs (μg/mL)” value in test [1] (rifampin as positive control) is over 100 µg/mL.

As for `CC(C)[C@H]1NC(=O)[C@H](Cc2ccccc2)NC(=O)[C@@H](C(C)C)NC(=O)[C@@H](C)NC(=O)[C@H](CO)NC(=O)[C@H]2C[C@]3(O)c4ccccc4N[C@@H]3N2C(=O)[C@@H](CO)NC1=O` [Compound 8, asperpyrroindotide A] (cyclo([X1]S[dA][dV]F[dV][dS])), the “inhibitory activity against M. tuberculosis H37Ra at a single concentration” value in test [1] is “None of them showed obvious inhibitory activity”. For the same molecule, in test [1] (rifampin as positive control), the “MICs (μg/mL)” value is over 100 µg/mL.

On to `[H]/N=C(/N)N[C@H]1[C@H](O)[C@@H](O)[C@H](O[C@@H]2O[C@@H](C)[C@](O)(C=O)[C@H]2O[C@@H]2O[C@@H](CO)[C@H](O)[C@@H](O)[C@@H]2NC)[C@@H](N/C(N)=N\[H])[C@@H]1O` [streptomycin, reference compound], for which, in the test with Mycobacterium marinum, the “minimum inhibitory concentrations (MICs)” value is 20.1 µM (≈ 11.7 µg/mL).
